Results as given in patent US8518912B2, “Phosphonic acid derivates and their use as P2Y12 receptor antagonists” (Actelion Pharmaceuticals Ltd., priority 2008, dated 2013).

target: T1, human P2Y12 receptor (Homo sapiens, UniProt Q9H244); assay: P2Y12 receptor binding assay; details: CHO cells with recombinant human P2Y12 receptor; tritium-labeled 2-methyl-S-ADP; 2 hours at RT
T1 construct: expressed in transfected cells; host or cells: Chinese Hamster Ovary (CHO) cells
Method: Chinese Hamster Ovary (CHO) cells with recombinant expression of the human P2Y12 receptor were cultured in 24 well cell-culture plates. Cells were washed three times with binding buffer (50 mM Tris pH 7.4, 100 mM NaCl, […], 0.5% BSA). The cells were then incubated with 0.5 ml per well binding buffer containing tritium-labeled 2-methyl-thio-adenosine 5′-diphosphate (2-methyl-S-ADP) (between 100,000 and 300,000 dpm per well) and various concentrations of test compounds. After incubation at RT for 2 hours, cells were washed three times with binding buffer. Then, cells were solubilized by addition of 0.5 ml solubilization buffer (SDS, NaOH, EDTA). The content of each well was then transferred into beta-counter vials and 2.0 ml of Ultima Gold Scintillation liquid was added.

T1 sequence (Q9H244 whole entry): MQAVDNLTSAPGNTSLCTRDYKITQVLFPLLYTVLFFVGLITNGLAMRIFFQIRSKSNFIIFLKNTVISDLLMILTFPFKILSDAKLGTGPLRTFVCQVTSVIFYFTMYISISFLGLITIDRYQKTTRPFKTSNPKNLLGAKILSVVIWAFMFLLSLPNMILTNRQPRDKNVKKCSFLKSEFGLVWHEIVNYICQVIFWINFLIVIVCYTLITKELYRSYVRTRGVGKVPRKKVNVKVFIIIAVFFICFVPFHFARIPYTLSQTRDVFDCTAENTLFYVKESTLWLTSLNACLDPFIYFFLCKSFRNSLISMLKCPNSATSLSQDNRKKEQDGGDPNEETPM

Question: Which IC50 does the source give for CCCCOC(=O)N1CCN(C(=O)[C@H](CCP(=O)(NCC(=O)OCC)NCC(=O)OCC)NC(=O)c2cc(N3CC[C@H](OC)C3)nc(-c3ccccc3)n2)CC1 [Example 75, N,N′-Bis-(ethoxycarbonylmethyl)-3-{(S)-[6-((S)-3-methoxy-pyrrolidin-1-yl)-2-phenyl-pyrimidine-4-carbonyl]-amino}-4-oxo-4-(4-butoxy-carbonyl-piperazin-1-yl)-butyl-phosphonic acid diamide] here?
Answer: 308 nM

Question: How did the IC50 turn out when CCCCOC(=O)N1CCN(C(=O)[C@H](CP(=O)(N[C@@H](C)C(=O)OC)N[C@@H](C)C(=O)OC)NC(=O)c2cc(N3CC[C@H](OC)C3)nc(-c3ccccc3)n2)CC1 [Example 89, N,N′-Bis-((S)-1-methoxycarbonyl-ethyl)-2-{(R)-[6-((S)-3-methoxy-pyrrolidin-1-yl)-2-phenyl-pyrimidine-4-carbonyl]-amino}-3-oxo-3-(4-butoxy-carbonyl-piperazin-1-yl)-propyl-phosphonic acid diamide] was run?
Answer: 162 nM

Question: With CCCCOC(=O)N1CCN(C(=O)[C@H](CP(=O)(O)O)NC(=O)c2cc(N3CCN(C)CC3)nc(-c3ccccc3)n2)CC1 [Example 73, 4-((R)-2-{[6-(4-Methyl-piperazin-1-yl)-2-phenyl-pyrimidine-4-carbonyl]-amino}-3-phosphono-propionyl)-piperazine-1-carboxylic acid butyl ester] as the molecule, how does the IC50 read?
Answer: 3 nM

Question: How did the IC50 turn out when CCCCOC(=O)N1CCN(C(=O)[C@H](CP(=O)(O)O)NC(=O)c2cc(O[C@H]3CCOC3)nc(-c3ccccc3)n2)CC1 [Example 37, 4-[(R)-2-({2-phenyl-6-[(S)-(tetrahydro-furan-3-yl)oxy]-pyrimidine-4-carbonyl}-amino)-3-phosphono-propionyl]-piperazine-1-carboxylic acid butyl ester] was run?
Answer: 78 nM

Question: How did the IC50 turn out when CCCCOC(=O)N1CCN(C(=O)[C@H](CP(=O)(O)O)NC(=O)c2cc(NCC)nc(-c3ccccc3)n2)CC1 [Example 16, 4-{(R)-2-[(6-ethylamino-2-phenyl-pyrimidine-4-carbonyl)-amino]-3-phosphono-propionyl}-piperazine-1-carboxylic acid butyl ester] was run?
Answer: 4.5 nM

Question: CCCCOC(=O)N1CCN(C(=O)[C@H](CP(=O)(O[C@@H](C)C(=O)OCC)O[C@@H](C)C(=O)OCC)NC(=O)c2cc(N3CC[C@H](OC)C3)nc(-c3ccccc3)n2)CC1 [Example 107, 4-((R)-3-[Bis-((S)-1-ethoxycarbonyl-ethoxy)-phosphoryl]-2-{[6-((S)-3-methoxy-pyrrolidin-1-yl)-2-phenyl-pyrimidine-4-carbonyl]-amino}-propionyl)-piperazine-1-carboxylic acid butyl ester] was tested. Which IC50 did it give?
Answer: 153 nM

Question: Which IC50 does the source give for CCCCOC(=O)N1CCN(C(=O)[C@H](CP(=O)(N[C@@H](Cc2ccccc2)C(=O)OC)N[C@@H](Cc2ccccc2)C(=O)OC)NC(=O)c2cc(N3CC[C@H](OC)C3)nc(-c3ccccc3)n2)CC1 [Example 87, N,N′-Bis-((S)-1-methoxycarbonyl-2-phenyl-ethyl)-2-{(R)-[6-((S)-3-methoxy-pyrrolidin-1-yl)-2-phenyl-pyrimidine-4-carbonyl]-amino}-3-oxo-3-(4-butoxy-carbonyl-piperazin-1-yl)-propyl-phosphonic acid diamide] here?
Answer: 11 nM

Question: CCCCOC(=O)N1CCN(C(=O)[C@H](CP(=O)(O)OCOC(C)=O)NC(=O)c2cc(N3CC[C@H](OC)C3)nc(-c3ccccc3)n2)CC1 (mixture of isomers) [Example 115, 4-((R)-3-(Acetoxymethoxy-hydroxy-phosphoryl)-2-{[6-((S)-3-methoxy-pyrrolidin-1-yl)-2-phenyl-pyrimidine-4-carbonyl]-amino}-propionyl)-piperazine-1-carboxylic acid butyl ester] was tested. Which IC50 did it give?
Answer: 5 nM

Question: CCCCOC(=O)N1CCN(C(=O)[C@H](CP(=O)(N[C@H](C(=O)OC)c2ccccc2)N[C@H](C(=O)OC)c2ccccc2)NC(=O)c2cc(N3CC[C@H](OC)C3)nc(-c3ccccc3)n2)CC1 [Example 88, N,N′-Bis-((S)-1-methoxycarbonyl-1-phenyl-methyl)-2-{(R)-[6-((S)-3-methoxy-pyrrolidin-1-yl)-2-phenyl-pyrimidine-4-carbonyl]-amino}-3-oxo-3-(4-butoxy-carbonyl-piperazin-1-yl)-propyl-phosphonic acid diamide] was tested. Which IC50 did it give?
Answer: 22 nM

Question: For CCCCOC(=O)N1CCN(C(=O)[C@H](CP(=O)(OCOC(=O)OC(C)C)OCOC(=O)OC(C)C)NC(=O)c2cc(N3CC[C@H](OC)C3)nc(-c3ccccc3)n2)CC1 [Example 95, 4-((R)-3-[Bis-(isopropoxycarbonyloxy-methoxy)-phosphoryl]-2-{[6-((S)-3-methoxy-pyrrolidin-1-yl)-2-phenyl-pyrimidine-4-carbonyl]-amino}-propionyl)-piperazine-1-carboxylic acid butyl ester], which IC50 is on record?
Answer: 34 nM

Question: How did the IC50 turn out when CCCCOC(=O)N1CCN(C(=O)[C@H](CP(=O)(O)O)NC(=O)c2cc(C3CC3)nc(-c3ccccc3)n2)CC1 [Example 35, 4-{(R)-2-[(6-cyclopropyl-2-phenyl-pyrimidine-4-carbonyl)-amino]-3-phosphono-propionyl}-piperazine-1-carboxylic acid butyl ester] was run?
Answer: 14 nM

Question: CCCCOC(=O)N1CCN(C(=O)[C@H](CP(=O)(O)O)NC(=O)c2cc(CCCOC)nc(-c3ccccc3)n2)CC1 [Example 45, 4-((R)-2-{[6-(3-methoxy-propyl)-2-phenyl-pyrimidine-4-carbonyl]-amino}-3-phosphono-propionyl)-piperazine-1-carboxylic acid butyl ester] was tested. Which IC50 did it give?
Answer: 5.5 nM

Question: CCCCOC(=O)N1CCN(C(=O)[C@H](CCP(=O)(O)O)NC(=O)c2cc(N3CCOCC3)nc(-c3ccccc3)n2)CC1 [Example 12, 4-{(S)-2-[(6-morpholin-4-yl-2-phenyl-pyrimidine-4-carbonyl)-amino]-4-phosphono-butyryl}-piperazine-1-carboxylic acid butyl ester] was tested. Which IC50 did it give?
Answer: 5.9 nM

Question: How did the IC50 turn out when CCCCOC(=O)N1CCN(C(=O)[C@H](CP2(=O)OCCCO2)NC(=O)c2cc(N3CC[C@H](OC)C3)nc(-c3ccccc3)n2)CC1 [Example 109, 4-[(R)-2-{[6-((S)-3-Methoxy-pyrrolidin-1-yl)-2-phenyl-pyrimidine-4-carbonyl]-amino}-3-(2-oxo-2λ^5-[1,3,2]dioxaphosphinan-2-yl)-propionyl]piperazine-1-carboxylic acid butyl ester] was run?
Answer: 208 nM

Question: CCCCOC(=O)N1CCN(C(=O)[C@H](CP(=O)(O)O)NC(=O)c2cc(-c3ccc(OC)cc3)nc(-c3ccccc3)n2)CC1 [Example 34, 4-((R)-2-{[6-(4-methoxy-phenyl)-2-phenyl-pyrimidine-4-carbonyl]-amino}-3-phosphono-propionyl)-piperazine-1-carboxylic acid butyl ester] was tested. Which IC50 did it give?
Answer: 13 nM

Question: With CCOC(=O)N1CCN(C(=O)[C@H](CP(=O)(OCOC(C)=O)OCOC(C)=O)NC(=O)c2cc(N3CC[C@H](OC)C3)nc(-c3ccccc3)n2)CC1 [Example 120, 4-((R)-3-[Bis-(acetoxy-methoxy)-phosphoryl]-2-{[6-((S)-3-methoxy-pyrrolidin-1-yl)-2-phenyl-pyrimidine-4-carbonyl]-amino}-propionyl)-piperazine-1-carboxylic acid ethyl ester] as the molecule, how does the IC50 read?
Answer: 7 nM
